For data set [1], the target named is T1, SxC^− transporter (system xC^− cystine-glutamate antiporter) (Rattus norvegicus, UniProt A0A8I6AB70).
T1 construct: endogenous in cells
As to the kind of experiment: Microglial glutamate release assay (LPS-activated primary microglia). It is filed as cell-based. On the procedure: Primary cultures of rat microglia were established as described previously. Microglia were seeded at 375,000/cm^2 in 96-well plates with minimal essential medium with Earle’s salts (MEM) containing 10% fetal bovine serum (FBS). After an overnight plating, the cultures were washed twice with serum-free MEM, and then a third volume was applied containing test substances at the indicated concentrations; MEM contains 100 μM (Cys)2. Immediately thereafter, lipopolysaccharide (LPS) was added to some wells at 100 ng/ml. This concentration was selected for this particular lot of LPS as the concentration producing a slightly submaximal response (i.e., 2–5% below the maximum). After 18 h, 50 μl of medium was transferred from each well to a black, opaque-bottomed 96-well plate and combined with 50 μl of assay reagent from a Amplex® Red Glutamic Acid Assay kit (ThermoFisher). A standard curve was generated with a range of concentrations of L-glutamate (monosodium salt). The assay reagent contained 0.25 U/ml horseradish peroxidase, 0.08 U/ml L-glutamate oxidase, 0.5 U/ml L-glutamate/pyruvate transaminase, and 200 μM L-alanine. After 30 min, fluorescence was measured in a Molecular Devices SpectraMax 3 with excitation at 550 nm and emission at 590 nm; values were interpolated into the standard curve. The microglial medium was also assayed for nitric oxide using Griess reagent to confirm that none of the experimental compounds was a general inhibitor of microglial activation. We also considered whether any compound was toxic to microglia. The microglia remaining in the 96-well plates were combined with 3-(4,5-dimethylthiazol-2-yl)-2,5-diphenyl-2H-tetrazolium bromide (MTT) at a final concentration of 125 μg/ml (in MEM/FBS) and incubated for 30 min at 37 °C and 5.5% CO2. After removal of the medium, 100 μl of dimethyl sulfoxide (DMSO) was added to dissolve the formazan crystals, and absorbance at 540 nm was measured in the SpectraMax 3; the mean background obtained in wells containing DMSO alone was subtracted from each experimental value.
Data were analyzed in GraphPad Prism 9.5.1. Nonlinear regression was performed on the glutamate release assay data to derive IC50 values and the graphed plot lines. ANOVA indicated post hoc tests were applied to dosimetric data; P < 0.05 was considered significant.
Fig. 2 Microglial Glu release assay. Rat primary microglia were activated with 100 ng/ml LPS alone or immediately following application of the indicated concentrations of test substances. After 18 h in the presence of LPS, an aliquot of medium was assayed for Glu via a […]. A First generation of compounds was created by simply varying the position of a methyl group around an aromatic ring, comparing activity to 3,5-DBT. B Additional modifications were evaluated, including several that simply extend the size of the structure hypothesized to fit into the hydrophobic pocket of the SxC^− transporter. Values are represented relative to the Glu detected in cultures treated with LPS alone; each data point represents a mean of 4 cultures. Nonlinear regression was performed to provide the plot lines

A short description of data set [2]: Solubility in aqueous media (observation). It is filed as physicochemical.
The nature of data set [3]: Light sensitivity (observation). It is filed as physicochemical.
The target in data set [4] is T1, SxC^− transporter (system xC^− cystine-glutamate antiporter). As to the kind of experiment: Cystine uptake assay (selenocystine) in LPS-activated primary microglia. It is filed as cell-based. Conditions: LPS 100 ng/ml 15 h, selenocystine uptake 30 min, 0.03-300 μM. On the procedure:
Cystine uptake was measured essentially as per Shimomura et al. using the Cystine Uptake Assay Kit (DOJINDO). Primary microglia were seeded as per glutamate release assays, and some cultures were treated the following day with 100 ng/ml LPS. After 15 h, the cultures were washed twice with Hank’s balanced salt solution (HBSS) and then incubated 5 min at 37 °C in HBSS containing fresh LPS and test substances at the indicated concentrations. The cultures were then exposed to HBSS containing selenocystine (DOJINDO) for 30 min at 37 °C, after which they were washed three times with ice-cold phosphate-buffered saline and then fixed in 50 μl methanol. A detection buffer comprising fluorescein O,O’-diacrylate and reducing agent (DOJINDO) was then added, and the plate was sealed and incubated for 30 min at 37 °C. Reaction product was then assayed in the Molecular Devices SpectraMax 3 with excitation at 490 nm and emission at 535 nm. Blanks consisted of wells containing only cells that had been washed, fixed with methanol, and incubated with the detection buffer, and the values from these wells were subtracted from the experimental values.
Fig. 5 35DPTA7 and 35DPTSA12 inhibit cystine uptake in microglia. Rat primary microglia were activated with 100 ng/ml LPS alone for 15 h, then the indicated concentrations of test substances were applied during application of selenocystine. […]

Data set [5] deals with primary cortical neurons. As to the kind of experiment: Neurotoxicity assay: microglia transwell / cortical neuron coculture, MTT. The data set is classed as cell-based, rat. Conditions: microglia treated with compound + LPS 100 ng/ml, 1 h, then 18 h with cortical neurons. On the procedure:
Primary cultures of rat cortical neurons were established as described previously; incorporation of both a serum-free medium and an intermittent treatment with cytosine arabinoside results in cultures that are among the purest neuronal primary cultures available. The cultures were seeded in 24-well plates, and 8 days later primary microglia were plated in transwell inserts (12-mm diameter) at 375,000/cm^2, washed to serum-free MEM, and treated with test substances followed immediately by LPS (100 ng/ml). After 1 h, the inserts were placed into the wells of the neuronal cultures. After an additional 18 h, the inserts were removed, and neuronal survival was evaluated by MTT assay as described above. Values are represented relative to the MTT signal produced in cultures exposed to untreated microglia.
Fig. 6 35DPTA7 and 35DPTSA12 reduced the neurotoxicity of activated microglia. Primary microglia were plated on permeable membranes in basket-type cell-culture inserts. Some cultures were treated with the indicated concentrations of 35DBTA7 or 35DBTSA12, followed immediately by application of LPS (100 ng/ml); some cultures were untreated and some received LPS alone. After 1 h, the inserts were placed into wells containing primary cortical neurons. After an additional 18 h, neuronal survival was determined by MTT assay. […]

The mark [6] stands for this setting: rat primary microglia, LPS 100 ng/ml, 18 h.
The mark [7] stands for this setting: rat primary microglia, LPS 100 ng/ml, 18 h, nonlinear regression in GraphPad Prism, read-out: IC50 ± SEM, inhibition of microglial Glu release.

Results on eleven compounds are retold here after PMC10702053, “Design, synthesis, and characterization of novel system xC^− transport inhibitors: inhibition of microglial glutamate release and neurotoxicity” (Journal of Neuroinflammation, 2023).

Entries after “also recorded” stand apart in the source; their conditions may differ. Read-outs that look alike come from different tables or passages of the source.

T1 sequence (A0A8I6AB70 1-502): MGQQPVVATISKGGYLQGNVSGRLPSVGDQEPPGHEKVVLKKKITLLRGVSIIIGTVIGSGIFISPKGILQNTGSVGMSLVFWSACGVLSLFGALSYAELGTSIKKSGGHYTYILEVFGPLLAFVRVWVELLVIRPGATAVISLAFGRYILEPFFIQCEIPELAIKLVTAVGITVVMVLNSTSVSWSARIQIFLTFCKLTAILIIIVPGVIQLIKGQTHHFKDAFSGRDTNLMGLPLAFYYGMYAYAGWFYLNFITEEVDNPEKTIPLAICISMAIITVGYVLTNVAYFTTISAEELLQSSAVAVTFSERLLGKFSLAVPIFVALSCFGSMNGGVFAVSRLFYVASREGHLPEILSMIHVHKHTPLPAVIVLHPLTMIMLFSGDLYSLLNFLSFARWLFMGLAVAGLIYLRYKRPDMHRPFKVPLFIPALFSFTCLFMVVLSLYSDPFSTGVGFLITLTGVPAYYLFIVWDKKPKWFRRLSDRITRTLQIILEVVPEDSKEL
T1 sequence (Q794F9 whole entry partner): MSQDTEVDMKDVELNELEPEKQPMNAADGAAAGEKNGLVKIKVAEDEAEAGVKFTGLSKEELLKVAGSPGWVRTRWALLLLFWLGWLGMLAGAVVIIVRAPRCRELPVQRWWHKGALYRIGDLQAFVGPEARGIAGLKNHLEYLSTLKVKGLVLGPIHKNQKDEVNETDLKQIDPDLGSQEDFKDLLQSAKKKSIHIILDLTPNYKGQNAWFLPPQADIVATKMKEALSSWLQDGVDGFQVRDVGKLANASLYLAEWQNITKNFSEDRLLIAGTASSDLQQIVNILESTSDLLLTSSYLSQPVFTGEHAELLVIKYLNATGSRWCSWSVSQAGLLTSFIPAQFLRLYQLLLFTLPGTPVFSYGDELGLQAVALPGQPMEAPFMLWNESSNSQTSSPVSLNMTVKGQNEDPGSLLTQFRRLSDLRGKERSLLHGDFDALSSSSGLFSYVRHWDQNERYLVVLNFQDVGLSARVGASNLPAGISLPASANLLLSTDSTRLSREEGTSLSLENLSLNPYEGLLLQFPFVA

With `N[C@@H](Cc1nc(I)[nH]c1I)C(=O)O` [2,5-DIH, 2,5-diiodohistidine], the “Inhibition of SxC^− / microglial Glu release (in words)” value in data set [1] (setting [6]) is “completely inactive”.
Consider `N[C@@H](Cc1cc(Br)c(O)c(Br)c1)C(=O)O` [3,5-DBT, 3,5-dibromotyrosine], for which it took 3490 ± 779 nM to reach half-maximal inhibition in data set [1] (IC50). Further, the “Inhibition of SxC^− / microglial Glu release (in words)” value in data set [1] (setting [6]) was “potent inhibition”. Further, in data set [2], the “Solubility in water / aqueous solutions (in words)” value is “high solubility in water as a salt”.
On to `N[C@@H](Cc1cc(I)c(O)c(I)c1)C(=O)O` [3,5-DIT], for which the Light sensitivity entry in data set [3] is reported as “exceedingly light sensitive”. Moreover, in data set [1] (setting [7]), the IC50 is 665 ± 126 nM.
Turning to `Cc1ccccc1C(=O)N[C@@H](Cc1cc(Br)c(O)c(Br)c1)C(=O)O` [35DBTA1], the IC50 in data set [1] (setting [7]) is 1030 ± 440 nM.
The same measure, in the same setting: the same measure for `Cc1cccc(C(=O)N[C@@H](Cc2cc(Br)c(O)c(Br)c2)C(=O)O)c1` [35DBTA2]: 5790 ± 3960 nM.
Regarding `Cc1ccc(C(=O)N[C@@H](Cc2cc(Br)c(O)c(Br)c2)C(=O)O)cc1` [35DBTA3], the “Inhibition of SxC^− / microglial Glu release (in words)” value in data set [1] (setting [6]) is “greatest potency”. Moreover, the IC50 in data set [1] (setting [7]) was found to be 159 ± 24.4 nM.
For the compound `CCC(=O)N[C@@H](Cc1cc(Br)c(O)c(Br)c1)C(=O)O` [35DBTA5], in data set [1] (setting [7]), the IC50 was 25500 ± 4590 nM.
With `O=C(O)[C@H](Cc1cc(Br)c(O)c(Br)c1)NC(=O)C(F)(F)F` [35DBTA6], the “Inhibition of SxC^− / microglial Glu release (in words)” value in data set [1] (setting [6]) is given as “trend toward inhibitory properties at low concentrations but produced a reversal of that trend above 3 μM”.
Take `O=C(N[C@@H](Cc1cc(Br)c(O)c(Br)c1)C(=O)O)c1ccc(-c2ccccc2)cc1` [35DBTA7]: the “Inhibition of cystine uptake into microglia (in words)” value in data set [4] is reported as “dose-dependent inhibition”. In addition, in data set [1] (setting [6]), the “Inhibition of SxC^− / microglial Glu release (in words)” value is recorded as “quite effective”. Besides, in data set [1] (setting [7]), the IC50 stood at 1620 ± 377 nM. Also, the “Neuronal survival (MTT) in presence of LPS-activated microglia (in words)” value in data set [5] is recorded as “elevated the survival signal; also recorded: quite effective”.
As for `O=C(N[C@@H](Cc1cc(Br)c(O)c(Br)c1)C(=O)O)c1ccc(-c2ccc(-c3ccccc3)cc2)cc1` [35DBTA8], in data set [1] (setting [6]), the “Inhibition of SxC^− / microglial Glu release (in words)” value is on record as “quite effective”. Moreover, in data set [1] (setting [7]), the IC50 is 172 ± 5.6 nM. The “Solubility in water / aqueous solutions (in words)” value in data set [2] is reported as “poorly soluble”. Also, the “Solubility of the disodium salt (carboxylate and phenoxide) in aqueous media” value in data set [2] (disodium salt) was “poorly soluble”.
Regarding `N[C@@H](Cc1ccc(O)cc1)C(=O)O` [Tyr, L-tyrosine, reference compound], the “Inhibition of SxC^− / microglial Glu release (in words)” value in data set [1] (setting [6]) was “does not possess any inhibitory properties”.
